Assay results from publication PMC8333425, “Discovery of a dual Ras and ARF6 inhibitor from a GPCR endocytosis screen” (Nature Communications, 2021).

How the values were obtained:
Experiment in all cases: KINOMEscan kinase binding assay
[1] = target: T1, 384 kinases from the human genome (Homo sapiens, UniProt Q9H4B4); conditions: kinase PLK3 (Entrez PLK3)
T1 construct: purchased Eurofin/DiscoverX
Excerpt: (§1) We reasoned that because internalizing AT1R and its targeting to intracellular compartments can support continued MAPK signaling, and since 21 inhibits receptor internalization, it should also impede to some extent ERK1/2 activation. […] Receptor-mediated ERK1/2 signaling can involve upstream kinases such as PKC, BRAF, and MEK1[35],[36]. […] To exclude other kinases potentially involved in ERK1/2 and Akt activation as targets of 21, we ran a kinase binding assay (KINOMEscan™) on 384 kinases from the human genome. Remarkably, a very high selectivity score S(10) of 0.008 was found (Supplementary Data 3).
(§2) The chemical library used for initial screening was from Chembridge DiverSet™ (60,000 compounds), Maybridge HitFinder™ (16,000 compounds), Maybridge (selected, 16,000 compounds), SPECS (selected, 16000 compounds), Microsource Discovery Spectrum (2000 compounds), Biomol (natural products, 500 compounds), Prestwick (commercialized products, 1120 compounds), SIGMA LopacTM (1280 compounds) and internal collection (synthesized at Université de Montréal-IRIC, ~4000 compounds). Compounds were all assigned an Université de Montréal number (UM) for internal use. Screen was performed at IRIC HTS facility. KINOMEscan™ profiling was serviced by Eurofin/DiscoverX (San Diego, USA).
(§3) Description of Additional Supplementary Files […]
(§4) File Name: Supplementary Data 3
(§5) Description: KINOMEscan results. Compound 21’s effect was tested on 384 kinases. Data represent kinases binding to their ligands in presence of 10 µM of 21, as compared to DMSO (100%). Results are from one experiment and represent the average of duplicates. Three kinases (FLT3, KIT, and PDGFRB) out of 384 were more than 90% affected (selectivity score S(10) of 0.008). […]

[2] = target: T2, 384 kinases from the human genome (Homo sapiens, UniProt P48729); conditions: kinase CSNK1A1 (Entrez CSNK1A1)
T2 construct: purchased Eurofin/DiscoverX
Excerpt: as §1, §2, §3, §4, §5

[3] = target: T3, 384 kinases from the human genome (Homo sapiens, UniProt Q9Y4K4); conditions: kinase MAP4K5 (Entrez MAP4K5)
T3 construct: purchased Eurofin/DiscoverX
Excerpt: as §1, §2, §3, §4, §5

[4] = target: T4, 384 kinases from the human genome (Homo sapiens, UniProt P04629); conditions: kinase TRKA (Entrez NTRK1)
T4 construct: purchased Eurofin/DiscoverX
Excerpt: as §1, §2, §3, §4, §5

[5] = target: T5, 384 kinases from the human genome (Homo sapiens, UniProt Q96RR4); conditions: kinase CAMKK2 (Entrez CAMKK2)
T5 construct: purchased Eurofin/DiscoverX
Excerpt: as §1, §2, §3, §4, §5

[6] = target: T6, 384 kinases from the human genome (Homo sapiens, UniProt O00506); conditions: kinase YSK1 (Entrez STK25)
T6 construct: purchased Eurofin/DiscoverX
Excerpt: as §1, §2, §3, §4, §5

[7] = target: T7, 384 kinases from the human genome (Homo sapiens, UniProt Q13873); conditions: kinase BMPR2 (Entrez BMPR2)
T7 construct: purchased Eurofin/DiscoverX
Excerpt: as §1, §2, §3, §4, §5

[8] = target: T8, 384 kinases from the human genome (Homo sapiens, UniProt P42681); conditions: kinase TXK (Entrez TXK)
T8 construct: purchased Eurofin/DiscoverX
Excerpt: as §1, §2, §3, §4, §5

[9] = target: T9, 384 kinases from the human genome (Homo sapiens, UniProt Q8N4C8); conditions: kinase MINK (Entrez MINK1)
T9 construct: purchased Eurofin/DiscoverX
Excerpt: as §1, §2, §3, §4, §5

[10] = target: T10, 384 kinases from the human genome (Homo sapiens, UniProt P45984); conditions: kinase JNK2 (Entrez MAPK9)
T10 construct: purchased Eurofin/DiscoverX
Excerpt: as §1, §2, §3, §4, §5

[11] = target: T11, 384 kinases from the human genome (Homo sapiens, UniProt Q15835); conditions: kinase GRK1 (Entrez GRK1)
T11 construct: purchased Eurofin/DiscoverX
Excerpt: as §1, §2, §3, §4, §5

[12] = target: T12, 384 kinases from the human genome (Homo sapiens, UniProt P06239); conditions: kinase LCK (Entrez LCK)
T12 construct: purchased Eurofin/DiscoverX
Excerpt: as §1, §2, §3, §4, §5

[13] = target: T13, 384 kinases from the human genome (Homo sapiens, UniProt Q7KZI7); conditions: kinase MARK2 (Entrez MARK2)
T13 construct: purchased Eurofin/DiscoverX
Excerpt: as §1, §2, §3, §4, §5

[14] = target: T14, 384 kinases from the human genome (Homo sapiens, UniProt P15056)
T14 construct: purchased Eurofin/DiscoverX
Excerpt: as §1, §2, §3, §4, §5

[15] = target: T15, 384 kinases from the human genome (Homo sapiens, UniProt Q8NG66); conditions: kinase NEK11 (Entrez NEK11)
T15 construct: purchased Eurofin/DiscoverX
Excerpt: as §1, §2, §3, §4, §5

[16] = target: T16, 384 kinases from the human genome (Homo sapiens, UniProt Q96SB4); conditions: kinase SRPK1 (Entrez SRPK1)
T16 construct: purchased Eurofin/DiscoverX
Excerpt: as §1, §2, §3, §4, §5

[17] = target: T17, 384 kinases from the human genome (Homo sapiens, UniProt O96017); conditions: kinase CHEK2 (Entrez CHEK2)
T17 construct: purchased Eurofin/DiscoverX
Excerpt: as §1, §2, §3, §4, §5

[18] = target: T18, 384 kinases from the human genome (Homo sapiens, UniProt Q9Y616); conditions: kinase IRAK3 (Entrez IRAK3)
T18 construct: purchased Eurofin/DiscoverX
Excerpt: as §1, §2, §3, §4, §5

[19] = target: T19, 384 kinases from the human genome (Homo sapiens, UniProt Q9NWZ3); conditions: kinase IRAK4 (Entrez IRAK4)
T19 construct: purchased Eurofin/DiscoverX
Excerpt: as §1, §2, §3, §4, §5

[20] = target: T20, 384 kinases from the human genome (Homo sapiens, UniProt P22694); conditions: kinase PKAC-beta (Entrez PRKACB)
T20 construct: purchased Eurofin/DiscoverX
Excerpt: as §1, §2, §3, §4, §5

[21] = target: T21, 384 kinases from the human genome (Homo sapiens, UniProt Q00536); conditions: kinase PCTK1 (Entrez CDK16)
T21 construct: purchased Eurofin/DiscoverX
Excerpt: as §1, §2, §3, §4, §5

[22] = target: T22, 384 kinases from the human genome (Homo sapiens, UniProt P57078); conditions: kinase RIPK4 (Entrez RIPK4)
T22 construct: purchased Eurofin/DiscoverX
Excerpt: as §1, §2, §3, §4, §5

[23] = target: T23, 384 kinases from the human genome (Homo sapiens, UniProt O14730); conditions: kinase RIOK3 (Entrez RIOK3)
T23 construct: purchased Eurofin/DiscoverX
Excerpt: as §1, §2, §3, §4, §5

[24] = target: T24, 384 kinases from the human genome (Homo sapiens, UniProt Q96PN8); conditions: kinase TSSK3 (Entrez TSSK3)
T24 construct: purchased Eurofin/DiscoverX
Excerpt: as §1, §2, §3, §4, §5

[25] = target: T25, 384 kinases from the human genome (Homo sapiens, UniProt P42685); conditions: kinase FRK (Entrez FRK)
T25 construct: purchased Eurofin/DiscoverX
Excerpt: as §1, §2, §3, §4, §5

[26] = target: T26, 384 kinases from the human genome (Homo sapiens, UniProt Q13163); conditions: kinase MEK5 (Entrez MAP2K5)
T26 construct: purchased Eurofin/DiscoverX
Excerpt: as §1, §2, §3, §4, §5

T14 sequence (P15056 whole entry): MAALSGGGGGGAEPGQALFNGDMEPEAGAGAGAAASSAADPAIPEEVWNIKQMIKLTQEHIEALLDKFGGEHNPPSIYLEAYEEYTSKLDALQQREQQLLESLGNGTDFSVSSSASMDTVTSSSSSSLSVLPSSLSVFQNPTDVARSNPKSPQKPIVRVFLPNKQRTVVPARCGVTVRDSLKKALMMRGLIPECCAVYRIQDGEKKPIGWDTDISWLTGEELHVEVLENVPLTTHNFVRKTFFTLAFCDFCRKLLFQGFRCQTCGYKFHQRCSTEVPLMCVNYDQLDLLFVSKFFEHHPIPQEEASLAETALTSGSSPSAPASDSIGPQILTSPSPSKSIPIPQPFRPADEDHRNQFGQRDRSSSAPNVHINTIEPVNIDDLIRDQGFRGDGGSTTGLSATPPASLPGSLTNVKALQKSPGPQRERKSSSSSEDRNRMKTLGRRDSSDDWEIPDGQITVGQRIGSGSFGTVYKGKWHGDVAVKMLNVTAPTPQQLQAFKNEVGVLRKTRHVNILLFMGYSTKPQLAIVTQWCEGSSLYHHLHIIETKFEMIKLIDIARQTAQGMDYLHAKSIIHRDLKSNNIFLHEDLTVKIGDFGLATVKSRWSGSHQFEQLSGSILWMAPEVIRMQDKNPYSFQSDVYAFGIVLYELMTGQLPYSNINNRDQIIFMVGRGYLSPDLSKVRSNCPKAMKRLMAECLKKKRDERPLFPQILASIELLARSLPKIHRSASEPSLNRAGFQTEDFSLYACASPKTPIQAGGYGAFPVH
T26 sequence (Q13163 whole entry): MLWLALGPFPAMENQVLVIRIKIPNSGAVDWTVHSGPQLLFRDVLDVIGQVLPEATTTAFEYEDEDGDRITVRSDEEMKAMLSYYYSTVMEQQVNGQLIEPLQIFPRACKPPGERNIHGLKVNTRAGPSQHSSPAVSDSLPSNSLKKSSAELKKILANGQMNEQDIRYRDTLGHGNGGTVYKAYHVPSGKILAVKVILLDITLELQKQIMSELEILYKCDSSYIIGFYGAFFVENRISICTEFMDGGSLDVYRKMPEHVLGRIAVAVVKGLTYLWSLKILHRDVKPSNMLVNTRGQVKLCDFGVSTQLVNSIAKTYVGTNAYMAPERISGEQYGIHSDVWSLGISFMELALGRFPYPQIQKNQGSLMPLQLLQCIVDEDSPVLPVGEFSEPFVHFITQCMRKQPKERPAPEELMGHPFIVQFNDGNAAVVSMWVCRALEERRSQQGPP
T24 sequence (Q96PN8 whole entry): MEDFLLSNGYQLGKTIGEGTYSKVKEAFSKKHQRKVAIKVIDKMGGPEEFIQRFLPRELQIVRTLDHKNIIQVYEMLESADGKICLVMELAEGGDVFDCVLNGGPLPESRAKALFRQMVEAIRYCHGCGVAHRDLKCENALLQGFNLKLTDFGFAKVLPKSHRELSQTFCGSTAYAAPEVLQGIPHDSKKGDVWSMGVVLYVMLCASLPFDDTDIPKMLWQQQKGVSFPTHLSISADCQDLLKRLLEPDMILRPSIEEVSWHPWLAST
T5 sequence (Q96RR4 whole entry): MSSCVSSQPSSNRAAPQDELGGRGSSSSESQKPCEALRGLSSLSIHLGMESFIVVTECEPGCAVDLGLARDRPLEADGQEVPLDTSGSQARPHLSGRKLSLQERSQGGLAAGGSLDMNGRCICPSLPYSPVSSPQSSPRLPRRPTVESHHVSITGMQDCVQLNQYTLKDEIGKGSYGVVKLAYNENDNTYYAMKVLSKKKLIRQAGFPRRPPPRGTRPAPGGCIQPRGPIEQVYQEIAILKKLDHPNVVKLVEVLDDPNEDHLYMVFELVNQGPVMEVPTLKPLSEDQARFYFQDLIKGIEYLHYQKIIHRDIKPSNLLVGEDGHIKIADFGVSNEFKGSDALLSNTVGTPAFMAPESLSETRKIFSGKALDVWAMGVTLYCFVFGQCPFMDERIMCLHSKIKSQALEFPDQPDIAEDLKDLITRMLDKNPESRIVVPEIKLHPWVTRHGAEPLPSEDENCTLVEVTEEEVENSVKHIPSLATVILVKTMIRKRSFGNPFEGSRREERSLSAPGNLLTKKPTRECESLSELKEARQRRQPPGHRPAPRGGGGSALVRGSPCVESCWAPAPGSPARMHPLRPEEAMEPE
T18 sequence (Q9Y616 whole entry): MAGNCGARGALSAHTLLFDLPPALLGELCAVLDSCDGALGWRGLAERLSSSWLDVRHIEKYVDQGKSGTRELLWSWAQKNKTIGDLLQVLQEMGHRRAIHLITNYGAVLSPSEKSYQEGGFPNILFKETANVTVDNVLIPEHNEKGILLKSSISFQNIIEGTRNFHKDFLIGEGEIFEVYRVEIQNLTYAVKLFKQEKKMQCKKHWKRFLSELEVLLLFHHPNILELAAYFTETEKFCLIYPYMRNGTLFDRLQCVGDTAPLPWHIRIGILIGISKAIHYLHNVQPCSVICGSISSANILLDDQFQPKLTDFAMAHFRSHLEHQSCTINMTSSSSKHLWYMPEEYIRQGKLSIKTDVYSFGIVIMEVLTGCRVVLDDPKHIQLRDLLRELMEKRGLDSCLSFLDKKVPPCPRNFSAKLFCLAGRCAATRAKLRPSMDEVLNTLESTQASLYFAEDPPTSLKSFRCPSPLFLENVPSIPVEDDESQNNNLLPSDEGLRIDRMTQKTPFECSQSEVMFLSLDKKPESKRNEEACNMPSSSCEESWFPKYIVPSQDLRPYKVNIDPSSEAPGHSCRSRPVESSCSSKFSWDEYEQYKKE
T4 sequence (P04629 33-796): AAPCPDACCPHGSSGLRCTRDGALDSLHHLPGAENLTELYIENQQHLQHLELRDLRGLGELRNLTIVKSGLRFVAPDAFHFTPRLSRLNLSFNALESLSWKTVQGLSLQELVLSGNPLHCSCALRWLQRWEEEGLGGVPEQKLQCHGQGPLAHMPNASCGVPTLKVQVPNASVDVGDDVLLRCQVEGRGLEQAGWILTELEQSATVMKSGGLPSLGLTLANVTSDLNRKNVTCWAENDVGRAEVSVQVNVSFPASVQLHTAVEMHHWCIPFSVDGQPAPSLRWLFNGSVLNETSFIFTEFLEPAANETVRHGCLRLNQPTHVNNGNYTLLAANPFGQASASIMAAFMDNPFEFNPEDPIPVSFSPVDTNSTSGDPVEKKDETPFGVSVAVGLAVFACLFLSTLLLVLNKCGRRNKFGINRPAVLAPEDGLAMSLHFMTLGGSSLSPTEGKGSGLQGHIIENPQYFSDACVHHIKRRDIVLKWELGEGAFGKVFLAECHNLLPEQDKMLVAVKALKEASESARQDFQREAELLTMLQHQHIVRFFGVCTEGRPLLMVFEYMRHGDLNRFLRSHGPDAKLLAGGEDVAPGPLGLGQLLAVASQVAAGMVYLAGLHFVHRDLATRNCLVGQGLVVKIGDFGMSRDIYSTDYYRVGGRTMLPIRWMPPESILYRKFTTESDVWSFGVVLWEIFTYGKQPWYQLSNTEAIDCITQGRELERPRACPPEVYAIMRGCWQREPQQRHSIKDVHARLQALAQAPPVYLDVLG
T19 sequence (Q9NWZ3 whole entry): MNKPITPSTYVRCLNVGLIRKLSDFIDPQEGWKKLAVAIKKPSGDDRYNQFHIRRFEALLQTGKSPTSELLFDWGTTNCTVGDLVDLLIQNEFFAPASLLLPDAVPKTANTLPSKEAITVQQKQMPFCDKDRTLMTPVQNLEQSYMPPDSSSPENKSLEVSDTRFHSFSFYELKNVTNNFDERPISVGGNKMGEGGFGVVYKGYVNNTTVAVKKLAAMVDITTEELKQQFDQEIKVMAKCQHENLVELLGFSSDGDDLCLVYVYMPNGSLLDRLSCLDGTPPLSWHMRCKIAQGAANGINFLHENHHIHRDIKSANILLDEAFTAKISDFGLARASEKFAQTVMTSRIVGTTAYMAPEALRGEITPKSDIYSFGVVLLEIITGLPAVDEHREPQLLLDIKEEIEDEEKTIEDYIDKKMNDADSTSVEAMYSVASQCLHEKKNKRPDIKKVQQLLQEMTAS
T2 sequence (P48729 whole entry): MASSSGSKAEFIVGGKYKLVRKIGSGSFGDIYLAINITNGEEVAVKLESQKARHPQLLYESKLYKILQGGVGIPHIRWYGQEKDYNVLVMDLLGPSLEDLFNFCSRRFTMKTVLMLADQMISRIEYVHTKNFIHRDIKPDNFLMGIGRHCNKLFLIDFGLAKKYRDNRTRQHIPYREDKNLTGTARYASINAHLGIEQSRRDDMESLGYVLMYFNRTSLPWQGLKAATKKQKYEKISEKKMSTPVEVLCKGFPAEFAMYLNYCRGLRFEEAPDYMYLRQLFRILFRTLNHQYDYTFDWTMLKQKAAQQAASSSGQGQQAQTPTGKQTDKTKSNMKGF
T21 sequence (Q00536 whole entry): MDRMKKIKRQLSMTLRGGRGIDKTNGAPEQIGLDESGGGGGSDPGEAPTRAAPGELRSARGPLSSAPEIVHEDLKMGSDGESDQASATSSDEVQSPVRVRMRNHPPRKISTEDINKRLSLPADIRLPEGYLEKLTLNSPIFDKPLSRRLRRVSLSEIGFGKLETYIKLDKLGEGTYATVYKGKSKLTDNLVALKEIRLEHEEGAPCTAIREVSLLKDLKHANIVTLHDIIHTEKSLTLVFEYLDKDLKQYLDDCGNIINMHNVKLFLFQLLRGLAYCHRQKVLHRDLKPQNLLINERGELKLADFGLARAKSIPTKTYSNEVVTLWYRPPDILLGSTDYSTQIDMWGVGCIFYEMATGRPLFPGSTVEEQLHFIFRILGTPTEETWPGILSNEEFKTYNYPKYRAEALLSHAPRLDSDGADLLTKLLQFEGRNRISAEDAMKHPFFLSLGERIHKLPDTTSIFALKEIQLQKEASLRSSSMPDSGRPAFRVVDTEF

CC(C)C(=O)N1CCN(c2ccc(NC(=O)c3cc4ccccc4o3)cc2Cl)CC1 [Compound 21]
Percent Control [1]: 81%
Percent Control [2]: 88%
Percent Control [3]: 80%
Percent Control [4]: 14%
Percent Control [5]: 100%
Percent Control [6]: 100%
Percent Control [7]: 88%
Percent Control [8]: 76%
Percent Control [9]: 63%
Percent Control [10]: 70%
Percent Control [11]: 94%
Percent Control [12]: 97%
Percent Control [13]: 80%
binding to BRAF ([14]; 10 µM of 21): failed to bind
Percent Control ([14]; kinase BRAF (Entrez BRAF)): 93%
Percent Control [15]: 97%
Percent Control [16]: 96%
Percent Control [17]: 100%
Percent Control [18]: 67%
Percent Control [19]: 76%
Percent Control [20]: 93%
Percent Control [21]: 96%
Percent Control [22]: 87%
Percent Control [23]: 100%
Percent Control [24]: 100%
Percent Control [25]: 79%
Percent Control [26]: 72%
